Each block holds one compound with its values, some of them ahead of it.
Experiments:
Estrogen receptor beta [1] = biological target: T1, Estrogen receptor beta (Homo sapiens, UniProt Q92731); assay: Agonist activity at human ER-beta transfected in African green monkey COS-7 cells measured after 24 hrs by Steady-Glo luciferase assay; type: cell-based
Aromatase = biological target: T2, Aromatase (Rattus norvegicus, UniProt P22443); assay: Inhibition of aromatase in rat mammary tumor; type: tissue-based, Mammary gland
T2 sequence (P22443 whole entry): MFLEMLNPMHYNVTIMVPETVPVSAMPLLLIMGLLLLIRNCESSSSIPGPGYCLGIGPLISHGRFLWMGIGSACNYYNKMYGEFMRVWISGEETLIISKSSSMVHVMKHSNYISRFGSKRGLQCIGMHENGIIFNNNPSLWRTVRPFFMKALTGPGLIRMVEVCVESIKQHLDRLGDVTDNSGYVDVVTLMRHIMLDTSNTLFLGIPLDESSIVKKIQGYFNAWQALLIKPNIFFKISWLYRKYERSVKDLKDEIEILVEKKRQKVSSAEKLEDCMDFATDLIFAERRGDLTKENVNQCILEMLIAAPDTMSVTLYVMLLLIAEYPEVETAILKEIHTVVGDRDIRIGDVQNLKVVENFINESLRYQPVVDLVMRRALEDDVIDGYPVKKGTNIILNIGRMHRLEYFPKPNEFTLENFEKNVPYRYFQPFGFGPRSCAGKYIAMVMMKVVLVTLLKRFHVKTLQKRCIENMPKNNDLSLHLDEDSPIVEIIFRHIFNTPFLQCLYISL

Estrogen receptor = biological target: T3, Estrogen receptor (Homo sapiens, UniProt P03372); assay: Modulation of ER-alpha (unknown origin)
T3 sequence (P03372 whole entry): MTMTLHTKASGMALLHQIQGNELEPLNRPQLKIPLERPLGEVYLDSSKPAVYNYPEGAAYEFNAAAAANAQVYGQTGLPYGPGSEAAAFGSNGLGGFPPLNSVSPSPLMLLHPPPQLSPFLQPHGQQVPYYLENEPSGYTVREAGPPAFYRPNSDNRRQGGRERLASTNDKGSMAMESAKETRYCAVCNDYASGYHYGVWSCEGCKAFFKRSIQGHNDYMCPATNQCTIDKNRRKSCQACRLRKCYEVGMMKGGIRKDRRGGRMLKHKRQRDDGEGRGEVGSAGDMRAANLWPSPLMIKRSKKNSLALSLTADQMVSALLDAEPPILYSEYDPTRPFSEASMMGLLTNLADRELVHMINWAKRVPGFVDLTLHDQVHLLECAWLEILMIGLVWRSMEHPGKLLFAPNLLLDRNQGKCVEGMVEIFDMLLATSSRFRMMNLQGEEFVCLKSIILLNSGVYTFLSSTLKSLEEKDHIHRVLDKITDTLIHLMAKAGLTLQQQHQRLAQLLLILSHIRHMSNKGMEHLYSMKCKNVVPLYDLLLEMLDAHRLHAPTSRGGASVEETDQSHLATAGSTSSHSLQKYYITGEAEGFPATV

Estrogen receptor beta [2] = biological target: T1, Estrogen receptor beta; assay: Modulation of ER-beta (unknown origin)
Estrogen receptor beta [3] = biological target: T1, Estrogen receptor beta; assay: Displacement of EL red from human full-length ER-beta expressed in baculovirus expression system incubated for 2 hrs by fluorescence polarization assay
MCF7 = assay: Antiproliferative activity against human MCF7 cells assessed as inhibition of cell growth; type: functional, cell-based

T1 sequence (Q92731 whole entry): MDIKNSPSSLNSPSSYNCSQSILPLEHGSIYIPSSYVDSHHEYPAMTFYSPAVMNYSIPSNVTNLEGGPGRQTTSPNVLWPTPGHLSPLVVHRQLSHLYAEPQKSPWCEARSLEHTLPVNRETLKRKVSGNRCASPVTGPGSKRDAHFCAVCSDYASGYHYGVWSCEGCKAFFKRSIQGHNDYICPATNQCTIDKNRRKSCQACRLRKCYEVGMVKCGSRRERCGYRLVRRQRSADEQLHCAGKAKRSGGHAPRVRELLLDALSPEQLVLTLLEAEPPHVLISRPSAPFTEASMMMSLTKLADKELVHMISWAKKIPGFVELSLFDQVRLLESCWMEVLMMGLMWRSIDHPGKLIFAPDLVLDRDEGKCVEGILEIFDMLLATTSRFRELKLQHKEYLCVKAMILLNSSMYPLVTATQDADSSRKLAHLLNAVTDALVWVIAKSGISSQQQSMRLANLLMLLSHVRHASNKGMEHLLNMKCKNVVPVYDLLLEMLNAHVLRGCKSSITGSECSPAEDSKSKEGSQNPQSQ

Compound: CCOC(=O)C1(C(C)=O)Cc2ccc([C@]3(O)CC[C@H]4[C@@H]5CCc6cc(O)ccc6[C@H]5CC[C@@]43C)cc2C1 (stereo partly specified)
EC50 (Estrogen receptor beta [1]): 1.8 nM

Compound: C[C@]12C=CC(=O)C=C1C[C@@H](Sc1ccc(N)cc1)[C@@H]1[C@@H]2CC[C@]2(C)C(=O)CC[C@@H]12
Ki (Aromatase): 18 nM

EC50 (Estrogen receptor): 0.014 nM | EC50 (Estrogen receptor beta [2]): 23 nM
Compound: C[C@]12CC[C@@H]3c4ccc(O)cc4CC[C@H]3[C@@H]1C[C@H]1OC(=O)C[C@]12O

IC50 (Estrogen receptor beta [3]): 5570 nM
Compound: Oc1ccc([C@H]2COc3cc(O)ccc3C2)cc1 [AUS-131]

Compound: C[C@]12CC[C@@H]3c4ccc(O)cc4C[C@@H](CCCCCCCCC[S+]([O-])CCCC(F)(F)C(F)(F)F)[C@H]3[C@@H]1CC[C@@H]2O (stereo partly specified) [FULVESTRANT]
IC50 (MCF7): 0.29 nM

Reference: ChEMBL document CHEMBL5108026, “An overview on Estrogen receptors signaling and its ligands in breast cancer” (Eur J Med Chem, 2022)
